The nature of data set [1]: Adsorption of compounds to aluminum hydroxide in histidine buffer (pH 6.8). Format: physicochemical. The conditions noted are these: histidine buffer pH 6.8, 0.1 mg/mL compound, 37° C. 5 hours.
Description: The resulting solution was diluted 10-fold with blank histidine buffer to a final compound concentration of 0.1 mg/mL. Diluted solutions were incubated at 37° C. for 5 hours. The samples were centrifuged at 14,000 rpm for 10 minutes to pellet the insoluble. The supernatant (along with an internal standard) was then evaluated by LC-MS/MS using a ballistic gradient (from 5% CH3CN-0.5% formic acid to 95% CH3CN-1.0% formic acid in 3.5 minutes) on a Waters Atlantis dC18 (50 mm×2.1 mm) column at room temperature against a calibration curve prepared at known compound concentrations ranging from 0.005 to 50 μM. The concentration in the supernatant was calculated as % unbound to aluminum hydroxide compared to control; the % bound to aluminum hydroxide was calculated as 100% minus % unbound.
The test system of another data set is A20 tumors. Kind of data set: Mouse syngeneic lymphoma A20 bilateral tumor model, single agent dose response. The settings on record: Compound 15 alone i.t., two weekly doses. In kind it is in vivo. The method, then:
The anti-tumor efficacy of Compound 15 adsorbed to Alhydrogel® was determined using the mouse syngeneic lymphoma A20 bilateral tumor model in female BALB/c mice.
A20 cells were grown in sterile conditions in a 37° C. incubator with 5% CO2 for two weeks. Cells were grown in RPMI 1640 medium with 2 mM L-glutamine adjusted to contain 1.5 g/L sodium bicarbonate, 4.5 g/L glucose, 10 mM HEPES, and 1.0 mM sodium pyruvate and supplemented with 0.05 mM 2-mercaptoethanol, 10% fetal bovine serum. Cells were passaged every 2-3 days. For the day of implant cells were lifted (passage 12) and re-suspended in HBSS at a concentration of 5×10^6 cells/100 μL. Cells were Radil tested for mycoplasma and murine viruses. For each mouse, 5×10^6 cells were implanted by subcutaneous injection into the right and left flank using a 28.5 g needle (100 μl injection volume). Tumor sizes were assessed three times a week once tumors were palpable. Tumor sizes were determined by using caliper measurements, with tumor volumes calculated using the formula: (Length×Width×Width)/2.
The female Balb/c mice bearing the A20 tumors were randomized into 7 groups (n=10 mice per group) 8 days post tumor cell implantation with an average tumor volume range of 111.40±23.57 mm^3. […]
Tumor volumes were measured by digital caliper 3 times a week and body weights of all animals were recorded throughout the study. […]

Another data set is described as follows: in vivo. The settings on record: female, C57/BL6, mouse, iv, 2 mg/kg.
The next data set deals with T1, human TLR7 (Homo sapiens, UniProt Q9NYK1).
T1 sequence (Q9NYK1 27-1049): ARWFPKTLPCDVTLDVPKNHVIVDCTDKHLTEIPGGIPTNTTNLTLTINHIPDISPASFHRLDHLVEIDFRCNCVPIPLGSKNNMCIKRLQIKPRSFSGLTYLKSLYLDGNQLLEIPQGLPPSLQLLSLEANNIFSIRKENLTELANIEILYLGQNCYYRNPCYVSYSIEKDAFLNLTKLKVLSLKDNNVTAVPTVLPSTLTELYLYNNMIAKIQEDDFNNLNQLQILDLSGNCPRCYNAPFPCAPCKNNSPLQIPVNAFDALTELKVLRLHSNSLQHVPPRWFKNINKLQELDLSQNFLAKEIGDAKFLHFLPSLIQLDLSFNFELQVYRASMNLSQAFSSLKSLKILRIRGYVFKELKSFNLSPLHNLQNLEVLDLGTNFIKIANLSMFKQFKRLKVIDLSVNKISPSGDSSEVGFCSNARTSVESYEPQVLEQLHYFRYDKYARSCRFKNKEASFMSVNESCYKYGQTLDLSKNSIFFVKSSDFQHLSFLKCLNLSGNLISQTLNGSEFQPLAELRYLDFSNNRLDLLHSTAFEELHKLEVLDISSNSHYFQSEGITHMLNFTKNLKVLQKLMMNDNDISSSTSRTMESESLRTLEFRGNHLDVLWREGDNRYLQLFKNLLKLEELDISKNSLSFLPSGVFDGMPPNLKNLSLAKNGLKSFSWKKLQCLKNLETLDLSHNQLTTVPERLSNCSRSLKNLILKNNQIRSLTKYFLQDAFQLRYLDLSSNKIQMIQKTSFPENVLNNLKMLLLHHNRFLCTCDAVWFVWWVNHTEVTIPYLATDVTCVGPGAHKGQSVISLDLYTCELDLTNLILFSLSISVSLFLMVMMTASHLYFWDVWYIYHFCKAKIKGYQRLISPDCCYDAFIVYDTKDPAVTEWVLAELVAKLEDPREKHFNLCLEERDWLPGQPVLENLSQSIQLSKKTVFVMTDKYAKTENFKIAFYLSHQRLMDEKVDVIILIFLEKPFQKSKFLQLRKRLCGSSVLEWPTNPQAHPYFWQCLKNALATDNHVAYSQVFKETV
Kind of data set: TLR7 reporter gene assay (NF-kB-driven luciferase) in HEK293 cells. A general note: In a reporter assay the amount or activity of a reporter protein is the signal.

Consider `Cc1cc(OCCOCCC(F)(F)P(=O)(O)O)ccc1CCc1cnc2c(N)nc3cc(CCC(=O)O)ccc3c2c1` [Compound 15, 3-(5-amino-2-(4-(2-(3,3-difluoro-3-phosphonopropoxy)ethoxy)-2-methylphenethyl)benzo[f][1,7]naphthyridin-8-yl)propanoic acid], for which the “% Bound” value in data set [1] is on record as 96.0%. The “tumor growth, both tumor sites” value in the data set with A20 tumors was “no significant difference in both tumor sites”. In the data set “in vivo”, the MRT (usually a mean duration of stay, worked out from the concentration-time curve) was determined as 10.2 min; the clearance (in general, a measure of how efficiently the substance is removed, as volume per time) was found to be 18.1 mL/min/kg; the half-life (usually how long it takes for the measured level to halve) was 60 min. Besides, the EC50 (in general, the concentration at which the effect is half-maximal) on human TLR7 stood at 96 nM.

(Values after patent US11752162B2, “Compounds and compositions for treating solid tumors by intratumoral administration” (Novartis AG, priority 2017, dated 2023).)
